# Laboratory results: patent US20140256793A1, “MEDICAMENT FOR DISEASES ASSOCIATED WITH AMYLOID beta AND SCREENING THEREOF” (National University Corporation Hokkaido University, priority 2011, published 2014)
# What was measured:
# [1] = test system: N2a cells and primary cultured nerve cells; assay: Measurement of exosome release after drug treatment (Western blot of Alix, Tsg101, GM1 in 100,000×g pellets); assay type: cell-based, murine; settings: 24 hours in serum-free medium; imipramine 10 μM, GW4869 10 μM, D609 50 μM
# Protocol: (§1) As previously described (Thery C et al., Curr Protoc Cell Biol Chapter: Unit 3.22 (2006)), exosomes were prepared from culture supernatants of N2a and murine primary cultured cortical nerve cells. The culture medium was replaced with a serum-free medium on the day before the preparation of exosomes. The cell culture supernatants were collected after 24 hours and sequentially centrifuged at 3,000×g for 10 minutes, at 4,000×g for 10 minutes, and at 10,000×g for 30 minutes to remove cells, dead cells, and cell fragments, and then spun down again at 100,000×g for one hour to obtain exosomes as pellets.
# (§2) Treatment with imipramine (10 μM), GW4869 (10 μM), D609 (50 μM) C6-ceramide (50 μM) or bacterial SMase (100 μU/ml) was performed for 24 hours in a serum-free medium.
# (§3) Exosome pellets purified from cultures of 5×10^6 cells were solubilized with Laemmli buffer (Laemmli U K, Nature (1970) 227: 680-685) and subjected to SDS-PAGE and Western blotting. Blots were probed with a primary antibody and then probed with an HRP-conjugated secondary antibody. Bands were detected and analyzed using a combination of an ECL Plus kit (GE Healthcare) and an LAS4000 (Fujifilm Corporation).
# Aβ = assay: Thioflavin T test of Aβ amyloid fibril formation with exosomes; assay type: biochemical, human; settings: exosomes from inhibitor- or siRNA-treated cells mixed with 25 μM Aβ42, five hours at 37° C.
# Protocol: A seed-free Aβ solution was prepared essentially according to the previous report (Naiki H et al., Methods Enzymol (1999) 309: 305-318). Briefly stated, synthetic Aβ40 and Aβ42 were dissolved in a 0.02% ammonium solution at 500 μM and 300 μM, respectively. In order to remove undissolved Aβ aggregates that can act as pre-existing seeds, the prepared solution was centrifuged at 540,000×g for three hours at 4° C. The obtained supernatant was collected and stored at −80° C. until use.
# Seed free Aβ (25 μM) was incubated in 100 μl of TBS comprising 0 μl, 1 μl, or 10 μl of exosome solution at 37° C. 1 μl of exosome solution was collected from culture supernatants of 1×10^6 cells. As described in the prior art document (Naiki H et al., Methods Enzymol (1999)309:305-318), fluorescence intensity of ThT in the mixture was measured using an Appliskan spectrofluorophotometer (Thermo Fisher Scientific). The optimal fluorescence intensities of amyloid fibrils were measured at an excitation wavelength of 446 nm and fluorescent wavelength of 490 nm by using a reaction mixture comprising 5 μM ThT and 50 mM glycine/NaOH with pH of 8.5.
# N2a cells = assay: Measurement of exosome release from N2a cells after siRNA, C6-ceramide or bacterial SMase treatment (Western blot); assay type: cell-based, murine; settings: for exosome release / secretion after siRNA knockdown: Stealth RNAi siRNA, Western blot of exosome markers; for ratio of amount of Alix compared with a control: siRNA knockdown, exosome fraction
# Protocol: as §1, §2
# For RNA-mediated interference (RNAi) experiments, the inventors used Stealth RNAi™ siRNA (Invitrogen) with the following sequences:
# Stealth™ Control RNA was obtained from Invitrogen SiRNA was delivered according to the manufacturer's protocol by using a Lipofectamine™ transfection reagent (Invitrogen).
# as §3
# [2] = test system: BV-2 cells or primary cultured microglia; assay: Fluorescence staining and internalization assay of PKH26-labeled exosomes; assay type: cell-based, murine
# [3] = test system: BV-2 cells or primary cultured microglia; assay: Aβ42 uptake into microglia (ELISA); assay type: cell-based, murine
# N2a cells and BV-2 cells = assay: Transwell experiment: N2a-APP cells with BV-2 cells, Aβ levels by ELISA; assay type: cell-based, murine; settings: for extracellular Aβ levels: no BV-2 cells on the lower wells, N2a-APP cells treated with siRNA
# Protocol: Aβ40 and Aβ42 levels were measured by using a sandwich enzyme-linked immunosorbent assay (ELISA) kit from Wako. Aggregated Aβs both in medium and cells were solubilized with 4 M guanidine-HCl buffer for 2 hours at room temperature and then were subjected to ELISA. All samples were measured in duplicates.
# (§4) N2a cells were cultured on 24-well plate inserts (0.5 μm pore, Costar) at 5×10^5 cells/cm^2 and then transfected with the APP770 plasmid simultaneously with siRNA for nSMase2 or SMS2 by using a Lipofectamine-2000. After 24 hours from the transfection, inserts were placed onto wells containing BV-2 cells. After an additional 24 hours of incubation, Aβ levels in the medium were measured by ELISA. Intracellular Aβ levels in BV-2 cells were also measured using ELISA after solubilization in guanidine HCl buffer as described above.
# N2a-APP cells = assay: Western blot of 100,000×g pellets from media of N2a-APP cells transfected with siRNA; assay type: cell-based, murine; settings: for levels of released exosomes, estimated by the amounts of Alix and Tsg101: siRNA knockdown
# Protocol: as §3, §4
# [4] = in the presence of BV-2 cells in the lower wells, 24 hours
compound,measurement,setting,value
S=C([S-])OC1CC2CC1C1CCCC21.[K+] (stereo not shown) [D609],"levels of released exosomes (exosomal markers Alix, Tsg101, GM1 in 100,000×g pellets)",[1],significant enhancement
same,"Aβ fibrillogenesis (ThT fluorescence) by exosomes purified from treated cultures, compared with controls",Aβ,increased
CN(C)CCCN1c2ccccc2CCc2ccccc21 [imipramine],"levels of released exosomes (exosomal markers Alix, Tsg101, GM1 in 100,000×g pellets)",[1],did not change
"aSMase siRNA: Stealth RNAi siRNA (Invitrogen) for aSMase, sense 5′-AUUGGUUUCCCUUUAUGAAGGGAGG-3′ (antisense CCUCCCUUCAUAAAGGGAAACCAAU; Commercial Stealth RNAi siRNA, modifications not given here)",exosome release / secretion after siRNA knockdown,N2a cells,did not change
O=C(/C=C/c1ccc(/C=C/C(=O)Nc2ccc(C3=NCCN3)cc2)cc1)Nc1ccc(C2=NCCN2)cc1 [GW4869],"levels of released exosomes (exosomal markers Alix, Tsg101, GM1 in 100,000×g pellets)",[1],significantly decreased
same,"Aβ fibrillogenesis (ThT fluorescence) by exosomes purified from treated cultures, compared with controls",Aβ,significantly reduced
"SMS1 siRNA: Stealth RNAi siRNA (Invitrogen) for SMS1, sense 5′-AUACAUUGUAAUACACCGAUACAGG-3′ (antisense CCUGUAUCGGUGUAUUACAAUGUAU; Commercial Stealth RNAi siRNA, modifications not given here)",exosome release / secretion after siRNA knockdown,N2a cells,significant increases
same,ratio of amount of Alix compared with a control,N2a cells,186.02±9.77%
"AV: annexin V, specifically recognizes phosphatidylserine (PS)",uptake of exosomes into BV-2 cells or primary cultured microglia,[2],significantly suppressed
same,Aβ uptake into microglia,[3],significantly suppressed
"nSMase1 siRNA: Stealth RNAi siRNA (Invitrogen) for nSMase1, sense 5′-AAUAGAACCACAUCUGCAUUCUUGG-3′ (antisense CCAAGAAUGCAGAUGUGGUUCUAUU; Commercial Stealth RNAi siRNA, modifications not given here)",exosome release / secretion after siRNA knockdown,N2a cells,did not change
"SMS2 siRNA: Stealth RNAi siRNA (Invitrogen) for SMS2, sense 5′-AUACAUAGUUAUACAGCGAUACAGG-3′ (antisense CCUGUAUCGCUGUAUAACUAUGUAU; commercial Stealth RNAi siRNA, chemistry not given here)",exosome release / secretion after siRNA knockdown,N2a cells,significant increases
same,ratio of amount of Alix compared with a control,N2a cells,424.75±45.96%
same,"Aβ fibrillogenesis (ThT fluorescence) by exosomes purified from treated cultures, compared with controls",Aβ,increased
same,Aβ levels in the BV-2 cells,N2a cells and BV-2 cells; compared with treatment with control RNA,significantly increased
same,level of Aβ40 in the culture media,N2a cells and BV-2 cells; [4],significantly decreased
same,level of Aβ42 in the culture media,N2a cells and BV-2 cells; [4],significantly decreased
same,extracellular Aβ levels,N2a cells and BV-2 cells,unchanged
same,"Aβ in 100,000×g pellets",N2a-APP cells; Western blotting,detected
same,"levels of released exosomes, estimated by the amounts of Alix and Tsg101",N2a-APP cells,obviously modulated
"CCCCCCCCCCCCC/C=C/[C@@H](O)[C@H](CO)NC(=O)CCCCC [C6-ceramide, N-hexanoyl-D-erythro-sphingosine]",release levels of exosomes,"N2a cells; C6-ceramide 50 μM or bacterial SMase 100 μU/ml, 24 hours",significantly increased
"nSMase2 siRNA: Stealth RNAi siRNA (Invitrogen) for nSMase2, sense 5′-AAUCGAUGUAGAUCUUGAUCUGAGG-3′ (antisense CCUCAGAUCAAGAUCUACAUCGAUU; commercial Stealth RNAi siRNA, chemistry not given here)",exosome release / secretion after siRNA knockdown,N2a cells,reduced
same,"Aβ fibrillogenesis (ThT fluorescence) by exosomes purified from treated cultures, compared with controls",Aβ,significantly reduced
same,extracellular Aβ levels,N2a cells and BV-2 cells,unchanged
same,"levels of released exosomes, estimated by the amounts of Alix and Tsg101",N2a-APP cells,obviously modulated
